Data on 16 compounds can be found in ChEMBL document CHEMBL4414642, “Buxaustroines A-N, a Series of 17(13→18)abeo-Cycloartenol Triterpenoidal Alkaloids from Buxus austro-yunnanensis and Their Cardioprotective Activities” (J Nat Prod, 2019).

SMILES strings stand for the structures. Activity calls are given as the source filed them. The rule behind the calls is not given here.

Data set [1] concerns H9c2. Description: Cardioprotective activity against rat H9c2 cells assessed as inhibition of doxorubicin-induced reduction in cell viability at 0.5 uM preincubated for 30 mins followed by doxorubicin treatment and measured after 48 hrs by CCK8 assay. It counts as functional, cell-based.
Data set [2] relates to H9c2. Description: Cytotoxicity against rat H9c2 cells at 1 uM after 48 hrs by CCK-8 assay. It counts as cell-based. To be noted: h9c2, 48 h.
Data set [3] concerns H9c2. Nature of the data set: Cardioprotective activity against rat H9c2 cells assessed as inhibition of doxorubicin-induced reduction in cell viability at 1 uM preincubated for 30 mins followed by doxorubicin treatment and measured after 48 hrs by CCK8 assay. The format is functional, cell-based. (In general: Tetrazolium assays rely on reduction of a dye to a coloured formazan, in cell work by metabolically active cells.)

With `C=C1[C@@H](NC)CC[C@@]23C[C@]24CC=C2C=C(CC)C(=O)C[C@@]2(C)[C@@H]4CC[C@@H]13`, the result with H9c2 [1] was Active. Moreover, the Activity entry in the data set with H9c2 [2] is listed as “Non-Toxic”.

On to `CN[C@@H](C)[C@H]1[C@H](O)C[C@@]2(C)[C@@H]3CC[C@H]4C(C)(C)[C@@H](NC)CC[C@]45C[C@@]35CC[C@]12C`, for which the result with H9c2 [3] was Active. Moreover, the Activity result with H9c2 [2] is on record as “Non-Toxic”.

With `C/C=C1/C(=O)C[C@@]2(C)[C@@H]3CC[C@H]4C(C)(C)[C@@H](NC)CC[C@]45C[C@@]35CC[C@]12C`, the outcome in the data set with H9c2 [1] was Active. For the same compound, the Activity result with H9c2 [2] is given as “Non-Toxic”.

For the compound `CCC1=C[C@H]2CC[C@@]34C[C@]35CC[C@H](NC)C(C)(C)[C@@H]5C=C[C@H]4[C@]2(C)CC1=O`, the outcome with H9c2 [1] was Active. Besides, the Activity entry in the data set with H9c2 [2] was “Non-Toxic”.

Consider `CCC1=C[C@H]2CC[C@@]34C[C@]35CC[C@H](N(C)C)[C@@H](C)[C@@H]5CC[C@H]4[C@]2(C)CC1=O`, for which the outcome in the data set with H9c2 [1] and in the data set with H9c2 [3] was Active. The Activity result in the data set on H9c2 [2] is on record as “Non-Toxic”.

For `C=C1[C@@H](N(C)C)CC[C@@]23C[C@]24CC[C@]2(O)C[C@H](CC)C(=O)C[C@@]2(C)[C@@H]4CC[C@@H]13`, the result in the data set on H9c2 [1] and with H9c2 [3] was inactive. Also, the Activity entry with H9c2 [2] is “Non-Toxic”.

For `C=C1[C@@H](NC)CC[C@@]23C[C@]24CCC2=C[C@](O)(CC)C(=O)C[C@@]2(C)[C@@H]4CC[C@@H]13`, the Activity entry in the data set with H9c2 [2] is “Non-Toxic”.

With `CCC1=C[C@H]2CC[C@@]34C[C@]35CC[C@H](NC)[C@@H](C)[C@@H]5CC[C@H]4[C@]2(C)CC1=O`, the result with H9c2 [1] was Active. Further, in the data set on H9c2 [2], the Activity entry is on record as “Non-Toxic”.

On to `C=C1[C@@H](N(C)C)CC[C@@]23C[C@]24CC[C@]2(O)C=C(CC)C(=O)C[C@@]2(C)[C@@H]4CC[C@@H]13`, for which the result in the data set with H9c2 [1] and in the data set with H9c2 [3] was inactive. Moreover, the Activity entry with H9c2 [2] is “Non-Toxic”.

`C=C1[C@@H](NC)CC[C@@]23C[C@]24CC[C@@H]2C=C(CC)C(=O)C[C@@]2(C)[C@@H]4CC[C@@H]13`: in the data set on H9c2 [1], the outcome was Active. Besides, the Activity entry with H9c2 [2] is recorded as “Non-Toxic”.

In the case of `CC[C@H]1C[C@@]2(O)CC[C@@]34C[C@]35CC[C@H](NC)C(C)(C)[C@@H]5CC[C@H]4[C@]2(C)CC1=O`, the result in the data set on H9c2 [1] and in the data set on H9c2 [3] was inactive. Besides, the Activity result in the data set on H9c2 [2] is listed as “Non-Toxic”.

Regarding `CC[C@H]1C=C2CC[C@@]34C[C@]35CC[C@H](NC)C(C)(C)[C@@H]5C=C[C@H]4[C@]2(C)C[C@@H]1O`, in the data set with H9c2 [2], the Activity result was “Non-Toxic”.

For `CCC1=CC2=CC[C@@]34C[C@]35CC[C@H](NC)C(C)(C)[C@@H]5CC[C@H]4[C@]2(C)CC1=O`, the outcome with H9c2 [1] was Active. In addition, the Activity entry in the data set with H9c2 [2] was “Non-Toxic”.

For `CCC1=C[C@@]2(O)CC[C@@]34C[C@]35CC[C@H](NC)C(C)(C)[C@@H]5C=C[C@H]4[C@]2(C)CC1=O`, the result with H9c2 [1] and with H9c2 [3] was inactive. In addition, the Activity result in the data set on H9c2 [2] was “Non-Toxic”.

Consider `C=C1[C@@H](NC)CC[C@@]23C[C@]24CC[C@]2(O)C[C@H](CC)C(=O)C[C@@]2(C)[C@@H]4CC[C@@H]13`, for which the result with H9c2 [1] and with H9c2 [3] was inactive. Also, the Activity result in the data set on H9c2 [2] is given as “Non-Toxic”.

As for `CCC1=C[C@H]2CC[C@@]34C[C@]35CC[C@H](NC)C(C)(C)[C@@H]5C[C@H](OC(C)=O)[C@H]4[C@]2(C)CC1=O`, the Activity entry in the data set with H9c2 [2] is listed as “Non-Toxic”.
